{"source": "patent US9272047B2", "about": "“Use of biological surfactant as anti-inflammatory agent and tissue preservative solution” (Shaperon Inc., priority 2007, dated 2016)", "key": {"[1]": {"test_system": "dendritic cell-mediated T cell", "assay": "Inhibition of the activation of dendritic cell-mediated T cell by E. coli LPS ([3H]-methylthymidine)", "type": "cell-based, mouse", "method": "Antigen presenting cells activated by LPS activates T cells. It was tested whether dendritic cells blocked by sodium glycocholate can activate T cells when LPS activates dendritic cells. Cells were harvested from the bone marrow of Rag2 deficient male mouse. The harvested cells were plated at 4×10^3 cells/well in a 96-well plate and treated with 1.5 ng/ml of […] and 0.75 ng/ml of interleukin-4, and then incubated for 6 days to differentiate into dendritic cells. Sodium glycocholate was reacted with LPS for 1 hour at 37° C., and then mixed with the dendritic cells. The dendritic cells were stimulated for 14 hours at 37° C., and CD3+ and CD4+ T cells separated from female Marilyn mouse having H-Y antigen-specific T cell receptor (TCR), were incubated with the dendritic cells for 72 hours. [3H]-methylthymidine was added, at 1 μCi/well, to the 96-well plate and then incubated for 18 hours. Cells were harvested from the 96-well plated and then CPM (count per minute) was measured through a beta counter."}, "CHO cells": {"test_system": "CHO cells", "assay": "Cytotoxicity to CHO cells (7AAD, FACS)", "type": "cell-based, Chinese hamster", "method": "The cytotoxicity of sodium glycocholate to the CHO cells, dendritic cells, T cells which were used in the above Examples was assayed. FACS analysis was performed after staining with 7AAD. First, sodium glycocholate was kept in vitro for 1 hour at 37° C., and then mixed with cells. CHO cells or dendritic cells were incubated for 14 hours at 37° C., and T cells which were mixed with 14 hour-incubated dendritic cells, were incubated for 4 days. Then, each cell was stained with 7AAD and cell analysis were carried out by using a flow cytometer.\nThe same procedures as for FIG. 25A were carried out in FIGS. 26A-26C-Figs. 31A-31B and cytotoxicity experiments were performed on three groups of bile acid derivatives which were classified based on their solubility in different solvents."}, "dendritic cells": {"test_system": "dendritic cells", "assay": "In vitro proinflammatory cytokine generation by E. coli LPS, dendritic cells (ELISA)", "type": "cell-based, mouse", "conditions": "LPS stimulation", "method": "(§1) In order to assay the effect of sodium glycocholate on the generation of proinflammatory cytokines induced by E. coli LPS, dendritic cells were prepared in the same way as Example 3, and macrophages were separated from the abdomen of C57BL/6 mouse. Thereafter, sodium glycocholate and LPS were reacted in vitro for 1 hour at 37° C., and then mixed with the cells. Each cell was stimulated for 14 hours at 37° C., and then supernatant fluid was separated.\n(§2) The concentrations of TNF-α and interleukin-12p40 in the separated supernatant fluid was measured by an enzyme-linked immunoabsorbent assay (ELISA).\n(§3) Each group was treated and assayed at least twice, and the results were statistically analyzed through t-test. The results were p<0.05 compared with the experimental groups treated by only LPS."}, "macrophages": {"test_system": "macrophages", "assay": "In vitro proinflammatory cytokine generation by E. coli LPS, macrophages (ELISA)", "type": "cell-based, C57BL/6 mouse", "conditions": "LPS stimulation", "method": "as §1, §2, §3"}, "[2]": {"test_system": "LPS-administered C57BL/6 mice", "assay": "Protection in LPS mouse model of sepsis (survival)", "type": "in vivo, C57BL/6 mouse", "conditions": "for survival rate of the mice: 20 mg/kg LPS into abdomen", "method": "In order to assay the neutralizing capacity of sodium glycocholate to LPS, three C57BL/6 mice of 6 weeks age were used per each group. 20 mg/kg and 10 mg/kg of LPS were administered into abdomen of the mouse in order to measure LD50 of LPS. It was observed that 20 mg/kg of LPS is the best optimal concentration for the test of protection test (FIG. 16).\nThe […] neutralizing capacity of sodium glycocholate to LPS was assayed. The survival rate was measured after 20 mg/kg of LPS was administered into the abdomen of mice and then 12.5 mg/kg of sodium glycocholate, and 20 mg/kg of LPS and 50 mg/kg of sodium glycocholate respectively was administered twice into the abdomen of mice, respectively."}, "NF-κB": {"test_system": "NF-κB", "assay": "Inhibition of E. coli LPS-stimulated NF-κB activation (CD25 expression) in 3FP CHO cells", "type": "cell-based, Chinese hamster", "conditions": "for nuclear transcription factor inhibition: LPS-stimulated 3FP cells, CD25 expression; for inhibition effect for LPS-stimulated CD25 expression (NF-κB activation): live 7AAD(−) LPS-stimulated 3FP cells", "method": "In order to evaluate the inhibition efficacy for the activation of E. coli LPS-stimulated NF-κB in a CHO cell, % expression of CD 25 in the CHO cell was evaluated as the following method, and FACS analysis after staining with 7-AAD was carried out to evaluate the cytotoxicity. Bile salts were classified into 3 groups based on their solubility in different solvents, as follows:\nThe CHO cells expressing CD25 under the regulation of a nuclear factor (NF-κB) promoter, shown FIG. 2A, were used for this experiment. Toll-like receptor 2 (TLR2) and CD14 gene-transformed CHO cells (hereinafter referred to as “3FP cells”) were also used.\nThe next day, the cultured cells were treated with bile acid derivatives and LPS, and were incubated in a CO2 incubator for 15 hr at 37° C.\nAfter stimulating the above incubated cells for 15 hr, the culture solution was centrifuged (1200 rpm, 5 min, 4° C.) to remove the culture supernatant. The precipitate was washed twice with 200 μl of FACS buffer (1×PBS containing 1% BSA and 1 mM EDTA). 20 μl of blocking solution (PBS containing 1:10 of normal mouse serum and 1:3 of anti-human CD14/CD32 (BD, 2.4G2) was added to each well and reacted on an ice for 30 min. A mixture solution of anti-human CD25-PE (1:16) and anti-human CD14-FITC (1:32) was added to the well and then reacted on the ice for 30 min. The reaction mixture was washed twice with 200 μl of FACS buffer, and then 200 μl of 7-AAD (1:20) was added to the reaction mixture. After the reaction mixture was reacted on the ice for 10 min, CD25 expression efficacy and cytotoxicity were analyzed by using a flow cytometer.\nIn order to analyze living cells, 7-AAD(−) cells were selected and an activation of nuclear transcription factor was confirmed by the increase of CD25 expression."}, "[3]": {"test_system": "LPS-administered C57BL/6 mouse", "assay": "In vivo serum cytokines in LPS-administered mice (CBA kit)", "method": "As described in Example 7, 20 mg/kg of LPS was administered into the abdomen of mice and then 12.5 mg/kg of sodium glycocholate, and 20 mg/kg of LPS and 50 mg/kg of sodium glycocholate respectively was administered twice into the abdomen of mice, respectively. At the predetermined time, blood was collected from mouse tail and then serum was obtained by centrifugation (2400×g, 10 min). The change of cytokine expression in the serum was measured by using cytometric bead array (CBA) kit."}}, "note": "“Also recorded” adds a separate entry of the source."}
{"compound": "C[C@H](CCC(=O)NCC(=O)[O-])[C@H]1CC[C@H]2[C@@H]3[C@H](O)C[C@@H]4C[C@H](O)CC[C@]4(C)[C@H]3C[C@H](O)[C@]12C.[Na+]", "note": "[sodium glycocholate]", "values": [{"measurement": "inhibition of proliferation of dendritic cell-mediated T cell", "setting": "[1]; 0.5 mg/ml", "result": "104.9±3.2", "unit": "%"}, {"measurement": "inhibition of proliferation of dendritic cell-mediated T cell", "setting": "[1]; 1 mg/ml", "result": "105.1±3.2", "unit": "%"}, {"measurement": "cytotoxicity", "setting": "CHO cells; 1 mg/ml", "result": "no significant cytotoxicity; also recorded: dose not have cytotoxicity"}, {"measurement": "7AAD(+) increase compared with the negative control group", "setting": "CHO cells; 14 hours", "result": "2-4%"}, {"measurement": "inhibition of generation of TNF-α", "setting": "dendritic cells; 0.5 mg/ml", "result": "70.2±2.3", "unit": "%"}, {"measurement": "inhibition of generation of interleukine-12p40", "setting": "dendritic cells; 0.5 mg/ml", "result": "4.7±3.1", "unit": "%"}, {"measurement": "inhibition of generation of TNF-α", "setting": "dendritic cells; 1 mg/ml", "result": "101.0±0.2", "unit": "%"}, {"measurement": "inhibition of generation of interleukine-12p40", "setting": "dendritic cells; 1 mg/ml", "result": "106.6±1.3", "unit": "%"}, {"measurement": "inhibition of generation of TNF-α", "setting": "macrophages; 0.5 mg/ml", "result": "42.2±0.9", "unit": "%"}, {"measurement": "inhibition of generation of interleukine-12p40", "setting": "macrophages; 0.5 mg/ml", "result": "9.8±11.0", "unit": "%"}, {"measurement": "inhibition of generation of TNF-α", "setting": "macrophages; 1 mg/ml", "result": "87.8±0.2", "unit": "%"}, {"measurement": "inhibition of generation of interleukine-12p40", "setting": "macrophages; 1 mg/ml", "result": "54.3±4.1", "unit": "%"}, {"measurement": "survival rate of the mice", "setting": "[2]; 12.5 mg/kg administered twice (1 hour and 6 hours after LPS)", "result": 40, "unit": "%"}, {"measurement": "survival rate of the mice", "setting": "[2]; 50 mg/kg administered twice (1 hour and 6 hours after LPS)", "result": 60, "unit": "%"}, {"measurement": "mortality of mice", "setting": "[2]; dose of 12.5 mg/kg mouse", "result": "significantly reduced"}, {"measurement": "nuclear transcription factor inhibition", "setting": "NF-κB; 0.5 mg/ml", "result": "21.7±0.9", "unit": "%"}, {"measurement": "nuclear transcription factor inhibition", "setting": "NF-κB; 1 mg/ml", "result": "88.2±1.2", "unit": "%"}, {"measurement": "inhibition effect for LPS-stimulated CD25 expression (NF-κB activation)", "setting": "NF-κB", "result": "inhibited depending on the concentration"}, {"measurement": "inhibition effect for LPS-stimulated CD25 expression (NF-κB activation)", "setting": "NF-κB; listed as sodium glycocholate hydrate", "result": "showed an inhibition effect"}, {"measurement": "IL-10 in serum", "setting": "[3]", "result": "significantly increased; also recorded: increase"}, {"measurement": "IFN-g in serum", "setting": "[3]; after 4, 8 and 12 hours", "result": "decrease"}, {"measurement": "IL-12p70 in serum", "setting": "[3]; after 4, 8 and 12 hours", "result": "decrease"}, {"measurement": "IL-6 in serum", "setting": "[3]; after 12, 24 and 48 hours", "result": "remarkably decreased; also recorded: decrease"}, {"measurement": "MCP-1 in serum", "setting": "[3]; after 12, 24 and 48 hours", "result": "remarkably decreased; also recorded: decrease"}, {"measurement": "TNF-α in serum", "setting": "[3]; after 12, 24 and 48 hours", "result": "remarkably decreased; also recorded: decrease"}]}
